Source: publication PMC4854315, “Discovery of a novel allosteric inhibitor-binding site in ERK5: comparison with the canonical kinase hinge ATP-binding site” (Acta Crystallographica. Section D, Structural Biology, 2016)

How the values were obtained:
Experiment in all cases: Z'-LYTE kinase panel
Format in all cases: biochemical
[1] = molecular target: T1, CAMK2B (CaMKII beta) (Homo sapiens, UniProt Q13554)
T1 construct: purchased ThermoFisher (SelectScreen, Z'-LYTE)
In short: (§1)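 Each compound was added at 10 µM, kinase activity was then measured via the standard Z′-LYTE assay, and percentage inhibition was calculated; 225 kinases were covered.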

[2] = molecular target: T2, AURKA (Aurora A) (Homo sapiens, UniProt O14965)
T2 construct: purchased ThermoFisher (SelectScreen, Z'-LYTE)
T2 sequence (O14965 1-403): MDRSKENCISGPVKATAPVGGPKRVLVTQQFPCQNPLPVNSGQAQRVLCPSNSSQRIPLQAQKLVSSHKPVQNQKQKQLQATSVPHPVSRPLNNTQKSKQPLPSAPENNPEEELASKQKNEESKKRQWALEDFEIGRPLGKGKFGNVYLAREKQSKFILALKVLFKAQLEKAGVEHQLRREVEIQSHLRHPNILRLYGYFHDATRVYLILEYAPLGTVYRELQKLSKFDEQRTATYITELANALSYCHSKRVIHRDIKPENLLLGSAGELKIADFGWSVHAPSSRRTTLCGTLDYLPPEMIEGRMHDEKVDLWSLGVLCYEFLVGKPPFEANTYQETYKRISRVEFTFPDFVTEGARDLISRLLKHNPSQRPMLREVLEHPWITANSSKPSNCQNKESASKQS
In short: as §1

[3] = molecular target: T3, CSF1R (FMS) (Homo sapiens, UniProt P07333); details: 10 µM compound, ATP Km app
T3 construct: purchased ThermoFisher (SelectScreen, Z'-LYTE)
T3 sequence (P07333 20-972): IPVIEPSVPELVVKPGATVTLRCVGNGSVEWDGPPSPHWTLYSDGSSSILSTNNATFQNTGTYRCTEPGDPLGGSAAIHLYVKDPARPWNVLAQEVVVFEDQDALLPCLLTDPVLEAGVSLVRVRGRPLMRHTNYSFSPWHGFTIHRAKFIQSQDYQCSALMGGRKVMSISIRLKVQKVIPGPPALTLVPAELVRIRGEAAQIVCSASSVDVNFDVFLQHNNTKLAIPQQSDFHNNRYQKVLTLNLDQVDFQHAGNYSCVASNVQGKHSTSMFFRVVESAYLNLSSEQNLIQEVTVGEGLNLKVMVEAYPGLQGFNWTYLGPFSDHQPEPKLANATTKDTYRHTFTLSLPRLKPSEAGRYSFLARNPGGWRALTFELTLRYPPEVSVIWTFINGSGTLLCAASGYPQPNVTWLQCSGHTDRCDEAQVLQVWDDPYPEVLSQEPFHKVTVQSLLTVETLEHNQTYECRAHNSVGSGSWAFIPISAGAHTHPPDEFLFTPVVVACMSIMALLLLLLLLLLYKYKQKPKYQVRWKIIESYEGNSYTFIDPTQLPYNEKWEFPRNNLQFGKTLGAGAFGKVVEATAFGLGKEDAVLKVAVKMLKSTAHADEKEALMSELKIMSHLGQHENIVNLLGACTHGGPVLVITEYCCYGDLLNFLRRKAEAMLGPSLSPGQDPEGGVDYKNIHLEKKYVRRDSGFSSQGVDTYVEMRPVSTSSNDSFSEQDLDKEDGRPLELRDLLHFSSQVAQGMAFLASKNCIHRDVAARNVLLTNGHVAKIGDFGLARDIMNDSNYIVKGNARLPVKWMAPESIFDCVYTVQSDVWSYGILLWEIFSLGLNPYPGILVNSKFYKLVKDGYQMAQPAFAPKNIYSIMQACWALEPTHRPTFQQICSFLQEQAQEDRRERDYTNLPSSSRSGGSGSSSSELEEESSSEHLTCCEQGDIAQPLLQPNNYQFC
In short: as §1

[4] = molecular target: T4, CDC42 BPA (MRCKA) (Homo sapiens, UniProt Q5VT25)
T4 construct: purchased ThermoFisher (SelectScreen, Z'-LYTE)
T4 sequence (Q5VT25 whole entry): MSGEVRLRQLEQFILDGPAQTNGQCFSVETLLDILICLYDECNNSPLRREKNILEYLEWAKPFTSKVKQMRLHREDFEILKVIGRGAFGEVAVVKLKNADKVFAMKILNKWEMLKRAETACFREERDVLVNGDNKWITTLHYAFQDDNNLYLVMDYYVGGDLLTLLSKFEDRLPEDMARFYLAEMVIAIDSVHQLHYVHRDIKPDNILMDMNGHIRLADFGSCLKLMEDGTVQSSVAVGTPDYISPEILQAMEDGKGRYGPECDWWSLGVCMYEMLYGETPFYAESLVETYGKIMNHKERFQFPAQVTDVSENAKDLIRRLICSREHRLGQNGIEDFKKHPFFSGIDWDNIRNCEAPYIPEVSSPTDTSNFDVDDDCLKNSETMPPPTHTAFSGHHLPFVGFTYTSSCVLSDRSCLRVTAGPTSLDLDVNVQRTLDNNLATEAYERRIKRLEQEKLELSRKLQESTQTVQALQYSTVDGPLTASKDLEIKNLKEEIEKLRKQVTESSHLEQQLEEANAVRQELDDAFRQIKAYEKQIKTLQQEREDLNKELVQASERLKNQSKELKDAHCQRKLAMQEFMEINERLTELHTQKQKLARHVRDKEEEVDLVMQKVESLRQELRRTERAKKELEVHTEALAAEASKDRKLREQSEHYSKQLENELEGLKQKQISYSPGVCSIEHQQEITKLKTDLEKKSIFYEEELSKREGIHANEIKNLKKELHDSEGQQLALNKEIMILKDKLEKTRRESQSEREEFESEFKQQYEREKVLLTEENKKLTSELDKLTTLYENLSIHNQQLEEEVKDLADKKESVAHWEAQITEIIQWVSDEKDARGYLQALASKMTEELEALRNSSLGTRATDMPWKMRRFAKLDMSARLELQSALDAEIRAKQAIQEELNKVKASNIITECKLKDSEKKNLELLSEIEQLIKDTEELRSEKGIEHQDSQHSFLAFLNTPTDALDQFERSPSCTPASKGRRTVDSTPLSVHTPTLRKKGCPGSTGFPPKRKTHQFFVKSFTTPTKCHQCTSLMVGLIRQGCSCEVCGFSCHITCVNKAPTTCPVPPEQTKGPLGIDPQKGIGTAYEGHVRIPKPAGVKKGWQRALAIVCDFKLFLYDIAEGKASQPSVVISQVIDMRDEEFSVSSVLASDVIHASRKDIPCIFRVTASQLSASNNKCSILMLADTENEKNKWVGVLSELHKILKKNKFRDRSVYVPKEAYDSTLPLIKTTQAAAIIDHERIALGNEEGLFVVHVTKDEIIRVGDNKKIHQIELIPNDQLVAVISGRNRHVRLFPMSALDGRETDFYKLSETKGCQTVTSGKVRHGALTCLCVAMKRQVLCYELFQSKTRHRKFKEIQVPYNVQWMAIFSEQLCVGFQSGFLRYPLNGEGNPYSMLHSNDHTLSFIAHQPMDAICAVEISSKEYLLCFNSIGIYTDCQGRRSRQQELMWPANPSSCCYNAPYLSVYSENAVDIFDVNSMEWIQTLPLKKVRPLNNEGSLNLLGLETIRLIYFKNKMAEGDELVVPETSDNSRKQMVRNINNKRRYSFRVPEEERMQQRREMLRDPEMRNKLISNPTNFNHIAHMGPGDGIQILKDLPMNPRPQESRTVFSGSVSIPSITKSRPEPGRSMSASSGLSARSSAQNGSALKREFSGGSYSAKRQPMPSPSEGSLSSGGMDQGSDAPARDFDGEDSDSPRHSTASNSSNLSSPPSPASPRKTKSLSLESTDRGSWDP
In short: as §1

[5] = molecular target: T5, FYN (Homo sapiens, UniProt P06241)
T5 construct: purchased ThermoFisher (SelectScreen, Z'-LYTE)
T5 sequence (P06241 whole entry): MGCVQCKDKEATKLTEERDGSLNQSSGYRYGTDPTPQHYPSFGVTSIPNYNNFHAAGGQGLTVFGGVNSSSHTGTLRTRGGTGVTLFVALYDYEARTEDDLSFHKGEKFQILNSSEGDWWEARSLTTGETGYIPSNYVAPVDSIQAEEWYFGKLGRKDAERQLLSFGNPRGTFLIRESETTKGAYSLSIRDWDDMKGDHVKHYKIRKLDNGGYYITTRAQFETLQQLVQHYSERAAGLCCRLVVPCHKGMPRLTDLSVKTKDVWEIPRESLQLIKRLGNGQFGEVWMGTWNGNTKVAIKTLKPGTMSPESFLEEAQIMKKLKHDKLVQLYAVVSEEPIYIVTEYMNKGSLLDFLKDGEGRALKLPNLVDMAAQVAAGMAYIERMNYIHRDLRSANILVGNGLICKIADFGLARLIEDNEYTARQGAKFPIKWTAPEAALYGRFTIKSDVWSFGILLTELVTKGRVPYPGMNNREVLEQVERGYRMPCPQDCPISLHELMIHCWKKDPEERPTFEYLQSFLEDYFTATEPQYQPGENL
In short: as §1

[6] = molecular target: T6, MAP4K2 (GCK) (Homo sapiens, UniProt Q12851)
T6 construct: purchased ThermoFisher (SelectScreen, Z'-LYTE)
T6 sequence (Q12851 1-820): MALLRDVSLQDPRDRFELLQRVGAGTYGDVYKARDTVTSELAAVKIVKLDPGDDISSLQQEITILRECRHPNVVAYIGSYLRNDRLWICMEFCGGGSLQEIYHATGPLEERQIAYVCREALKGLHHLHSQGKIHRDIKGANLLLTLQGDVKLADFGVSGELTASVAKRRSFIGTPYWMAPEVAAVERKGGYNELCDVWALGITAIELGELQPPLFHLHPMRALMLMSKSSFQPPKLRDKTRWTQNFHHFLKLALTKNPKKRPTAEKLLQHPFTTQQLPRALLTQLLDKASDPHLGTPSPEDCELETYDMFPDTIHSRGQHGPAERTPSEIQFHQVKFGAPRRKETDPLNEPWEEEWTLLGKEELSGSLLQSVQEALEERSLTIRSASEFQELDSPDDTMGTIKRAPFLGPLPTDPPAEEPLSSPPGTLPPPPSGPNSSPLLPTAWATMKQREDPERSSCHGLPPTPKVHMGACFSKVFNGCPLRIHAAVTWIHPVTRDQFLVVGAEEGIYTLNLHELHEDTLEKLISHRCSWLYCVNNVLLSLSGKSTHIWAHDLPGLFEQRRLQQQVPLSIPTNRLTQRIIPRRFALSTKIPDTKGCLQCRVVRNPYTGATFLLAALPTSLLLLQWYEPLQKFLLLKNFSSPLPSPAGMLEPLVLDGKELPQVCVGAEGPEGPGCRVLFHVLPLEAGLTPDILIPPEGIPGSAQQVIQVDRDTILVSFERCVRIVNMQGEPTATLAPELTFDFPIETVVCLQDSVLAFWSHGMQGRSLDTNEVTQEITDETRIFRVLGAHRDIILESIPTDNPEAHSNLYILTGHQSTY
In short: as §1

[7] = molecular target: T7, NEK9 (Homo sapiens, UniProt Q8TD19)
T7 construct: purchased ThermoFisher (SelectScreen, Z'-LYTE)
T7 sequence (Q8TD19 1-979): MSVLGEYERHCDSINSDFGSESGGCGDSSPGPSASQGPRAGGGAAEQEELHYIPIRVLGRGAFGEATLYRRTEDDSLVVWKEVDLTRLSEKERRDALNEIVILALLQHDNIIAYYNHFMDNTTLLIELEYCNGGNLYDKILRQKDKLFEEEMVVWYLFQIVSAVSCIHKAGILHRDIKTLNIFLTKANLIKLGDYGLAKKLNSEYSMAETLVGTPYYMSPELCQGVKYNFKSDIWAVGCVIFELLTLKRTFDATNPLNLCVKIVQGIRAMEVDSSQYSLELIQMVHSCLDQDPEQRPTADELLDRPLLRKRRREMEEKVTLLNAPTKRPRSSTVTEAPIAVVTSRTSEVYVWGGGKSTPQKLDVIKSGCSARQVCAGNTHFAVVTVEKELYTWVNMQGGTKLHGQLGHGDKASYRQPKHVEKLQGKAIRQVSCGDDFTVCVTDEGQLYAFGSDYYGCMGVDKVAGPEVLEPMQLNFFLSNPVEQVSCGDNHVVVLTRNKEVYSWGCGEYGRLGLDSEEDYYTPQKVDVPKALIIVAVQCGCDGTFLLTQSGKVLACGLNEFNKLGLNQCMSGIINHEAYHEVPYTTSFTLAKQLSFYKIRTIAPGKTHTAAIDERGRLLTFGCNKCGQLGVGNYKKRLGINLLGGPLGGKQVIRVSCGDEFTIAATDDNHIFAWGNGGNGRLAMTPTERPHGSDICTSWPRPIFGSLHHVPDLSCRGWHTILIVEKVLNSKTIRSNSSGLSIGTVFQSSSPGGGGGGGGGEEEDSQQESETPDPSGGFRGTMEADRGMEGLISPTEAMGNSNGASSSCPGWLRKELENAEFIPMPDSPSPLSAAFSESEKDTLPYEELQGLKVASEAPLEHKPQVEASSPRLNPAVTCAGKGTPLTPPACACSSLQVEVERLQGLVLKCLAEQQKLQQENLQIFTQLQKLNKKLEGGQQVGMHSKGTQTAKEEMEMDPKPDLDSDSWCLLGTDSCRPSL
In short: as §1

[8] = molecular target: T8, MARK2 (Homo sapiens, UniProt Q7KZI7)
T8 construct: purchased ThermoFisher (SelectScreen, Z'-LYTE)
T8 sequence (Q7KZI7 whole entry): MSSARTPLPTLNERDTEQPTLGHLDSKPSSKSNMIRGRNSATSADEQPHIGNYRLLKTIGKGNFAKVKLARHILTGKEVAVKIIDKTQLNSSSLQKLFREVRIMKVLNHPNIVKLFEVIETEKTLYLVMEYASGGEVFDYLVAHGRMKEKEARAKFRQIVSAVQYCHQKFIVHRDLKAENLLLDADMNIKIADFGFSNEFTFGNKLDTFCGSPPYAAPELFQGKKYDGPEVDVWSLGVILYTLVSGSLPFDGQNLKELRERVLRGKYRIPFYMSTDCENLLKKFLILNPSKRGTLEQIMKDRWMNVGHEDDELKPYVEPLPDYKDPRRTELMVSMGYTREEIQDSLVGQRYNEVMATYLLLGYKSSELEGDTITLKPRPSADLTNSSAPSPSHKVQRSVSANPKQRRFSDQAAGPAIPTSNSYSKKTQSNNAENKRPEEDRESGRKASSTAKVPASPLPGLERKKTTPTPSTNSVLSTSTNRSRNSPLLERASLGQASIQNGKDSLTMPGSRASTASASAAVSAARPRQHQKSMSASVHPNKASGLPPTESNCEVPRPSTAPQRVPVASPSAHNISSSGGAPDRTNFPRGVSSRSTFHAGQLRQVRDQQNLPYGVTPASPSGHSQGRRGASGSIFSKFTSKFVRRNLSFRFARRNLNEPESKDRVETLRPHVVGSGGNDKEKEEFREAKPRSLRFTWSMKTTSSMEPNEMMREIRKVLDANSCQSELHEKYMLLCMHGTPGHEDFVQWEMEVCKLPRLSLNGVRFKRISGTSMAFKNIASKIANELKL
In short: as §1

Compound	CAMK2B (CaMKII beta) % Inhibition ([1]; 10 µM compound, ATP Km app) [%]	AURKA (Aurora A) % Inhibition ([2]; 10 µM compound, ATP Km app) [%]	CSF1R (FMS) % Inhibition [3] [%]	CDC42 BPA (MRCKA) % Inhibition ([4]; 10 µM compound, ATP Km app) [%]	FYN % Inhibition ([5]; 10 µM compound, ATP Km app) [%]	MAP4K2 (GCK) % Inhibition ([6]; 10 µM compound, ATP Km app) [%]	NEK9 % Inhibition ([7]; 10 µM compound, ATP Km app) [%]	MARK2 % Inhibition ([8]; 10 µM compound, ATP Km app) [%]	inhibition at 10 µM [1] [%]	inhibition at 10 µM [2] [%]	inhibition at 10 µM [3] [%]	inhibition at 10 µM [4] [%]	inhibition at 10 µM [5] [%]	inhibition at 10 µM [6] [%]	inhibition at 10 µM [7] [%]	inhibition at 10 µM [8] [%]	CSF1R (FMS) % Inhibition ([3]; listed as SN1109056190, 10 µM) [%]
XMD8-92 [Compound 2, reference compound]	70	85	29	-2.25	-14	46	-0.532	9	–	–	–	–	–	–	–	–	–
Cc1ncc(-c2nc(Nc3ccc(C(=O)NCCN4CCCCC4)cc3)ncc2F)n1C(C)C [Compound 3]	–	–	–	–	–	–	–	–	70	82	94	17	74	77	18	89	–
Cc1cc(Nc2nc(N)nn2C(=O)NC(C)C)ccc1Cl [Compound 5]	–	–	–	–	–	–	–	–	-2.29	78	> 80	5	15	50	1.46	24	81
